Earlier results, collected in patent US11021501B2, “Creatine phosphate analog prodrugs, compositions and methods of use thereof” (Farmington Pharma Development, priority 2015, dated 2021).
Like-named read-outs stand apart in the source and are kept apart here.

What was measured:
[1] = tested on: creatine phosphate levels
[2] = animals fed a diet containing up to 1%

CN(CC(=O)O)C(=N)NP(=O)(O)O [Creatine phosphate, creatine phosphate]
adverse side effects (patients with cardiac diseases, intravenous injection up to 8 gm/day): without adverse side effects

CN(CC(=O)O)C(=N)N.O [creatine monohydrate]
adverse side effects (athletes and body builders, 2-3 gm/day): without adverse side effects

CN(CC(=O)O)C(=N)N [creatine]
overall increase of creatine phosphate levels ([1]; creatine supplementation over weeks): < 50%
duration of increase in tissue creatine phosphate levels ([1]; following oral creatine supplementation): > 14 days
increase of cerebral creatine phosphate ([1]; healthy volunteers, oral creatine administration): about 10%

NC1=NCCN1CC(=O)O [cyclocreatine]
adverse effects [2]: do not exhibit adverse effects
